In patent publication US20060160897A1, “Topical Use of Valproic Acid for the Prevention or Treatment of Skin Disorders” (priority 2003, published 2006):

Key:
inflammatory cytokines [1] = assay: Semiquantitative RT-PCR of cytokine mRNA, PMA/Ion stimulated peripheral blood lymphocytes; assay type: cell-based, human; settings: for cytokine expression (mRNA): PMA/Ion stimulation, FIG. 13 A and B
Experimental: (§1) Monocyte and macrophage depleted peripheral blood mononuclear cells were obtained from consenting adults via separation using Ficoll-Hypaque. The peripheral blood mononuclear cells (PBMC) fraction was washed and seeded in 9 cm petri dishes. After an incubation of 2 hours at 37° C. to remove most of the monocytes, macrophages, and B-cells, the non-adherent cells were collected and cultured in 175 cm^2 flasks for 2 days. Cells were harvested and adjusted to 3 million cells per ml. Aliquots of 500 μl were transferred to each well of 24-well flat bottom plates. Peripheral blood lymphocytes (PBL's) were treated with various concentrations of HDAC inhibitors as indicated. After a 2 hours incubation time at 37° C. cells were stimulated with phorbol 12-myristate 13-acetate (PMA)/ionomycin (Ion) or activated via T cell receptor (TCR/CD3) complex with 10 μg/ml anti-CD3 mAb (OKT3) and 2.5 μg/ml anti-CD28 mAb. After 24 hours at 37° C. the supernatant was removed and frozen for cytokine assays. Cell pellets were lysed and total RNA was isolated using the RNeasy mini kit from Qiagen.
(§2) One microgram of total RNA was transcribed to cDNA by standard methods using reverse transcriptase and an oligo-dT primer (Invitrogen). For semiquantitative PCR, 2 μl of cDNA was amplified by PCR using specific primers. Primers for PCR were synthesized by MWG and are as follows: […]

T-cell lymphomas = settings: phase II trial (Piekarz et al., 2001); cited from earlier work
Basal Cell Carcinoma [2] = settings: Tazarotene used alone; cited from earlier work
HaCaT cells [3] = assay: Apoptosis assay, flow cytometry of Sub-G1 DNA containing cells; assay type: cell-based, human; settings: drugs day 1, assay day 2, combinations VPA 1 mM + Tazarotene 1 or 2 μM, FIG. 5
Experimental: Apoptosis assays: Apoptosis was measured by a Beckton Dickinson FACScalibur flow cytometer by analysing the percentage of Sub-G1 DNA containing cells. 10000 events were recorded for each sample. The amplification scale was linear for all parameters. Photomultiplier tension was set as to place the peak DNA content corresponding cells in G0/G1 at channel 300 in the FL2-H vs SCC—H graphs. Cells showing a less than peak DNA content (hypodiploid cells) and high SSC—H (granular high condensed cells) were regarded as apoptotic. The experiments were repeated three times in duplicate. Error bars represent 1 standard deviation.
Cells were plated in 35 mm diameter wells on day 0. Drugs were added on day 1. The apoptosis assay was carried out on day 2. […] Thus, the combinatorial activity of these two drugs must be explained via synergistic activity of this treatment.

Basal Cell Carcinoma [4] = assay: Topical treatment of BCC patients with Tazarotene and VPA; assay type: in vivo, human; settings: 4 lesions pre-treated with Tazarotene alone for at least 16-20 weeks
Experimental: 10 lesions were treated: 8 Superficial BCCs and 2 pigmented BCC. […] Lesions were evaluated clinically and photographed every two weeks.

HaCaT cells [5] = assay: MTT assay, growth of human immortalized keratinocytes; assay type: cell-based
Experimental: MTT assay: This calorimetric assay detects the formation of formazan which is proportional to the number of cells present. Tissue culture medium containing drugs was removed and 200 μl of DME containing 2 mg/ml MTT ((3-4, 5-dimethyl thiazol-2yl) 2,5-diphenyltetrazolium bromide) was added to each well. 96-well plates were incubated at 37 ° C., and 10% CO2 for 30 minutes. Medium containing MTT was then removed and the cells were washed once with PBS. Following removal of the PBS, 200 μL DMSO was added to each well and plates were placed on a rotating platform shaker for 5 minutes. Results were obtained by reading the absorbance at a wavelength of 550 nm using a spectrophotometer. Results are expressed as percentages setting the control as 100%.
FIG. 1 graphically depicts the results of growth assays performed on human immortalized keratinocytes (HaCaT cells), treated for three days with the indicated compounds. Drugs were added on the same day of plating (day 0). The MTT assay (to measure cell proliferation) was carried out on day 3. Various combinations of the drugs were used in the growth assays.
Cells were plated in wells on day 0. […] The MTT assay was carried out on day 3. Various combinations of the drugs were also used in the growth assays. […] Thus, the combinatorial activity of these two drugs must be explained via synergistic activity of this treatment.
Drugs were added on the same day of plating (day 0). The MTT assay (to measure cell proliferation) was carried out on the third day. […] Thus, this combinatorial activity of these two drugs must be explained via synergistic activity of this treatment.

[6] = test system: stage III/IV non-small cell lung cancer; settings: monotherapy, phase II (Keer et al., 2002); cited from earlier work
IL-2 and TNF-α = IL-2 and TNF-α ELISA, supernatants of stimulated peripheral blood lymphocytes; assay type: cell-based, human; settings: PBLs, FIG. 15; for concentration at which inhibition of IL-2 and TNF-α expression was maximal: CD3/CD28; for IL-2 secretion, dose-response / TNF-α secretion, dose-response: increasing concentrations two hours, CD3 and CD28 mAbs 24 hours
Experimental: as §1
To perform ELISAs, supernatants of treated and untreated PBL's were collected and IL-2 as well as TNF-α were measured using the Duo Set ELISA Development System (R&D Systems) as described by the manufacturer.

PPARδ = settings: cited from earlier work
inflammatory cytokines [7] = assay: Semiquantitative RT-PCR of cytokine mRNA, LPS stimulated keratinocytes; assay type: cell-based, human; settings: HaCaT, 200 nM TSA or 5 mM VPA 4 hours, then LPS 100 ng/ml 24 hours, FIG. 12A
Experimental: Human immortalized keratinocytes (HaCaT cells) were seeded at a density of 2.5 million cells per ml into 75 cm^2 flasks. […] After 24 hours at 37° C. cells were lysed and total RNA was isolated using the RNeasy mini kit from Qiagen.
as §2

F9 cells = settings: cited from earlier work
[8] = test system: acute promyelocytic leukemia; settings: one PML-RAR patient with multiple relapses after retinoic acid (Warrell et al., 1998); cited from earlier work
[9] = PBLs preincubated 2 hours, PMA/Ion 24 hours, FIGS. 12B, 13
[10] = vs untreated stimulated control

## O=C(CCCCCCC(=O)Nc1ccccc1)NO [SAHA, suberoylanilide hydroxamic acid]
Inflammatory cytokines [1]
  cytokine expression (mRNA): can modulate cytokine expression

## C/C=C1\NC(=O)[C@H]2CSSCC/C=C/[C@H](CC(=O)N[C@H](C(C)C)C(=O)N2)OC(=O)[C@H](C(C)C)NC1=O [depsipeptide]
T-cell lymphomas
  clinical outcome: used successfully

## CCOC(=O)c1ccc(C#Cc2ccc3c(c2)C(C)(C)CCS3)nc1 [Tazarotene]
Basal Cell Carcinoma [2]
  share of BCC's in which regression is induced: ~50%
  side effects (such as pain and itching): several unwanted side effects
  time to regression: 12-24 weeks
HaCaT cells [3]
  apoptosis (Sub-G1 DNA containing cells): induces apoptosis
Basal Cell Carcinoma [4]
  tumor diameter under Tazarotene alone: no reduction of tumor diameter
HaCaT cells [5]; treated three days, MTT on day 3, combinations VPA 1 mM + Tazarotene 1 or 2 μM, FIG. 1
  cell growth (MTT assay): inhibited cell growth

## CCCC(=O)OCOC(=O)C(C)(C)C [Pivanex, Pivaloyloxymethyl butyrate]
[6]
  clinical activity: demonstrating activity

## O=C(CCC1CCCCC1)NO [G2M-702]
Inflammatory cytokines [1]
  cytokine expression (mRNA): can modulate cytokine expression
IL-2 and TNF-α
  concentration at which inhibition of IL-2 and TNF-α expression was maximal: 3 µM
  IL-2 secretion, dose-response: dose-dependent inhibition
  TNF-α secretion, dose-response: dose-dependent inhibition

## O=C(/C=C/C1CCCCC1)NO [G2M-707]
Inflammatory cytokines [1]
  cytokine expression (mRNA): can modulate cytokine expression
IL-2 and TNF-α
  concentration at which inhibition of IL-2 and TNF-α expression was maximal: 1 µM
  IL-2 secretion, dose-response: dose-dependent inhibition
  TNF-α secretion, dose-response: dose-dependent inhibition

## O=c1[nH]cc(F)c(=O)[nH]1 [5-FU, 5-Fluorouracil]
HaCaT cells [5]; MTT on the third day, 5 μM or 10 μM 5-FU and 1 mM VPA, FIG. 3
  cell growth (MTT assay): inhibited growth

## CC(/C=C/C(=O)NO)=C\[C@@H](C)C(=O)c1ccc(N(C)C)cc1 [TSA, trichostatin A]
PPARδ
  PPARδ activation: activates
Inflammatory cytokines [1]; [9]
  IL-4 mRNA transcripts: significantly reduced
  IL-6 mRNA transcripts: only moderate effects
Inflammatory cytokines [7]
  IFN-γ mRNA transcript: virtually unaffected
Inflammatory cytokines [7]; [10]
  IL-6 mRNA level: significant decrease
  TNF-α mRNA level: significant decrease
F9 cells
  F9 cell differentiation: induces the same type of F9 cell differentiation as VPA

## O=C(CCC1CCCC1)NO [G2M-701]
Inflammatory cytokines [1]
  cytokine expression (mRNA): can modulate cytokine expression
IL-2 and TNF-α
  concentration at which inhibition of IL-2 and TNF-α expression was maximal: 6 µM
  IL-2 secretion, dose-response: dose-dependent inhibition
  TNF-α secretion, dose-response: dose-dependent inhibition

## phenylbutyrate
[8]
  clinical outcome of leukemia: complete remission of the leukemia
